Converted amounts (≈) assume the structure as drawn.
Legend:
in vivo = conditions: mouse, iv
K. pneumoniae, Type 2 = test: Minimum Inhibitory Concentration (MIC), standard method of The Japan Society of Chemotherapy; conditions: Klebsiella pneumoniae, TYPE2, read-out: Minimum Inhibitory Concentration (MIC)
From the text: (§1) The test method was in accordance with the standard method specified by The Japan Society of Chemotherapy.

male mice = test: acute intravenous toxicity in male mice; conditions: for Day after treatment 1 (number of mice dead) / Day after treatment 2 (number of mice dead) / Day after treatment 3 (number of mice dead) / Mortality: i.v.; for Day after treatment 1 (number of mice dead) / Day after treatment 2 (number of mice dead) / Day after treatment 3 (number of mice dead): 5 male mice; for Day after treatment 1 (number of mice dead): day 1; for Day after treatment 2 (number of mice dead): day 2; for Day after treatment 3 (number of mice dead): day 3; for Mortality: male mice; for acute toxicity (LD50) compared with racemate, in words: mice, intravenous, relative to (±)-compound
Ps. aeruginosa, 32121 = test: Minimum Inhibitory Concentration (MIC), standard method of The Japan Society of Chemotherapy; conditions: Pseudomonas aeruginosa, 32121, read-out: Minimum Inhibitory Concentration (MIC)
From the text: as §1

Str. pyogenes, G-36 = test: as above; conditions: Streptococcus pyogenes, G36, read-out: Minimum Inhibitory Concentration (MIC)
From the text: as §1

Ps. maltophilia, IID1275 = test: as above; conditions: Stenotrophomonas maltophilia, IID1275, read-out: Minimum Inhibitory Concentration (MIC)
From the text: as §1

E. coli, NIHJ = test: as above; conditions: Escherichia coli, read-out: Minimum Inhibitory Concentration (MIC)
From the text: as §1

S. aureaus, Smith = test: as above; conditions: read-out: Minimum Inhibitory Concentration (MIC)
From the text: as §1

Ser. marcescens, 10100 = test: as above; conditions: Serratia marcescens, 10100, read-out: Minimum Inhibitory Concentration (MIC)
From the text: as §1

S. aureaus, 209P = test: as above; conditions: read-out: Minimum Inhibitory Concentration (MIC)
From the text: as §1

Ps. aeruginosa, 32104 = test: as above; conditions: Pseudomonas aeruginosa, 32104, read-out: Minimum Inhibitory Concentration (MIC)
From the text: as §1

various microorganisms = test: antimicrobial activity compared with racemic Ofloxacin (summary); assay type: cell-based; conditions: relative to (±)-compound

Structure (SMILES) | MIC (K. pneumoniae, Type 2) [µg/mL] | Day after treatment 1 (number of mice dead) (male mice; 100 mg/kg) | Day after treatment 2 (number of mice dead) (male mice; 100 mg/kg) | Day after treatment 3 (number of mice dead) (male mice; 100 mg/kg) | Mortality (male mice; 100 mg/kg) | Day after treatment 1 (number of mice dead) (male mice; 200 mg/kg) | Day after treatment 2 (number of mice dead) (male mice; 200 mg/kg) | Day after treatment 3 (number of mice dead) (male mice; 200 mg/kg) | Mortality (male mice; 200 mg/kg) | Day after treatment 1 (number of mice dead) (male mice; 400 mg/kg) | Day after treatment 2 (number of mice dead) (male mice; 400 mg/kg) | Day after treatment 3 (number of mice dead) (male mice; 400 mg/kg) | MIC (Ps. aeruginosa, 32121) [µg/mL] | MIC (Str. pyogenes, G-36) [µg/mL] | MIC (Ps. maltophilia, IID1275) [µg/mL] | MIC (E. coli, NIHJ) [µg/mL] | MIC (S. aureaus, Smith) [µg/mL] | MIC (Ser. marcescens, 10100) [µg/mL] | MIC (S. aureaus, 209P) [µg/mL] | MIC (Ps. aeruginosa, 32104) [µg/mL] | further results
CC1COc2c(N3CCN(C)CC3)c(F)cc3c(=O)c(C(=O)O)cn1c23 (racemic) [Racemic Ofloxacin, (±)-9-fluoro-3-methyl-10-(4-methyl-1-piperazinyl)-7-oxo-2,3-dihydro-7H-pyrido[1,2,3-de][1,4]-benzoxazine-6-carboxylic acid, reference compound] | 0.1 (≈ 0.277 µM) | 0 | 0 | 0 | 0/5 | 2 | 0 | 0 | 2/5 | 5 | 0 | 0 | 0.2 (≈ 0.553 µM) | 1.56 (≈ 4.32 µM) | 0.78 (≈ 2.16 µM) | < 0.1 | 0.2 (≈ 0.553 µM) | 0.1 (≈ 0.277 µM) | 0.39 (≈ 1.08 µM) | 0.78 (≈ 2.16 µM) | LD50 (in vivo): 203 mg/kg; Mortality (male mice; 400 mg/kg): 5/5
CCN1CCN(c2c(F)cc3c(=O)c(C(=O)O)cn4c3c2OC[C@@H]4C)CC1 [Example 17, (S)-(-)-9-Fluoro-3-Methyl-10-(4-Ethyl-1-Piperazinyl)-7-Oxo-2,3-Dihydro-7H-Pyrido[1,2,3-de][1,4]Benzoxazine-6-Carboxylic Acid] | < 0.1 | – | – | – | – | – | – | – | – | – | – | – | 0.1 (≈ 0.266 µM) | 1.56 (≈ 4.16 µM) | 0.1 (≈ 0.266 µM) | < 0.1 | < 0.1 | < 0.1 | 0.1 (≈ 0.266 µM) | 0.39 (≈ 1.04 µM) | –
C[C@@H]1COc2c(N3CCN(C)CC3)c(F)cc3c(=O)c(C(=O)O)cn1c23 [R(+)-Ofloxacin] | 1.56 (≈ 4.32 µM) | 0 | 0 | 0 | 0/5 | 3 | 0 | 0 | 3/5 | 5 | 0 | 0 | 6.25 (≈ 17.3 µM) | < 100 | 12.5 (≈ 34.6 µM) | 0.39 (≈ 1.08 µM) | 6.25 (≈ 17.3 µM) | 1.56 (≈ 4.32 µM) | 25 (≈ 69.2 µM) | 12.5 (≈ 34.6 µM) | Mortality (male mice; 400 mg/kg): 5/5; acute toxicity (LD50) compared with racemate, in words (male mice): substantially equal to that of the (±)-compound
C[C@H]1COc2c(N3CCN(C)CC3)c(F)cc3c(=O)c(C(=O)O)cn1c23 [S(-)-Ofloxacin, S-(-)-9-Fluoro-3-Methyl-10-(4-Methyl-1-Piperazinyl)-7-oxo-2,3-Dihydro-7H-Pyrido[1,2,3-de][1,4]Benzoxazine-6-Carboxylic Acid] | < 0.1 | 0 | 0 | 0 | 0/5 | 0 | 0 | 0 | 0/5 | 5 | 0 | 0 | 0.1 (≈ 0.277 µM) | 0.78 (≈ 2.16 µM) | 0.39 (≈ 1.08 µM) | < 0.1 | 0.1 (≈ 0.277 µM) | < 0.1 | 0.2 (≈ 0.553 µM) | 0.39 (≈ 1.08 µM) | antimicrobial activity, times higher than that of the (±)-compound (various microorganisms): about 2 times; LD50 (male mice; i.v. in mice): 244 mg/kg; Mortality (male mice; 400 mg/kg): 5/5; acute toxicity (LD50) compared with racemate, in words (male mice): weaker
